{
  "source": "patent US10918107B2",
  "about": "“Encapsulated lactams” (Conopco, Inc., priority 2015, dated 2021)",
  "assay": "Solubility of the lactam in 2-heptanone carrier oil",
  "format": "physicochemical",
  "settings": "'also soluble at 1%' (0.5% solution used in the example)",
  "protocol": "2-heptanone was used as the carrier (oil phase) for the lactam at a ratio of 1:199 (Lactam:Heptanone) which equates to 0.5% lactam solution. The inventor(s) have determined that the lactam is also soluble at 1%. The isocyanate was polymethylene polyphenyl isocyanate (Mn340) and the crosslinker was hexamethylenediamine (HMDA). Emulsification was carried out at a shear of 15K. The stabiliser is a commercial naphthalene sulphonate called Morwet-D425®. Morwet forms dark brown solutions so the encapsulated slurry is often buff/brown coloured.",
  "data": [
    {"smiles": "C=C1NC(=O)C=C1c1ccc(Cl)cc1", "note": "[Ref. 488, 4-(4-chlorophenyl)-5-methylene-pyrrol-2-one]", "values": [
      {"measurement": "solubility of lactam in 2-heptanone (carrier oil)", "result": "≥ 1", "unit": "%"}
    ]}
  ]
}
